Holding throughout (type): functional
Holding throughout (conditions): read-out: IZ

For assay [1], the system named is Bacillus cereus. Briefly: Antibacterial activity against Bacillus cereus at 10000 ppm after 24 hrs by agar diffusion method. (In general: Agar diffusion results depend on both activity and mobility in agar.)
Assay [2] deals with Bacillus cereus. Briefly: Antibacterial activity against Bacillus cereus at 30000 ppm after 24 hrs by agar diffusion method.
For assay [3], the system named is Bacillus cereus. Briefly: Antibacterial activity against Bacillus cereus at 50000 ppm after 24 hrs by agar diffusion method.
In assay [4] the test system is Bacillus subtilis. Briefly: Antibacterial activity against Bacillus subtilis at 10000 ppm after 24 hrs by agar diffusion method.
For assay [5], the system named is Bacillus subtilis. Briefly: Antibacterial activity against Bacillus subtilis at 30000 ppm after 24 hrs by agar diffusion method.
Assay [6] relates to Bacillus subtilis. Briefly: Antibacterial activity against Bacillus subtilis at 50000 ppm after 24 hrs by agar diffusion method.
In assay [7] the test system is Escherichia coli. Briefly: Antibacterial activity against Escherichia coli at 10000 ppm after 24 hrs by agar diffusion method.
Assay [8] relates to Escherichia coli. Briefly: Antibacterial activity against Escherichia coli at 30000 ppm after 24 hrs by agar diffusion method.
Assay [9] concerns Escherichia coli. Briefly: Antibacterial activity against Escherichia coli at 50000 ppm after 24 hrs by agar diffusion method.
Assay [10] relates to Micrococcus luteus. Briefly: Antibacterial activity against Micrococcus luteus at 10000 ppm after 24 hrs by agar diffusion method.
In assay [11] the test system is Micrococcus luteus. Briefly: Antibacterial activity against Micrococcus luteus at 30000 ppm after 24 hrs by agar diffusion method.
For assay [12], the system named is Micrococcus luteus. Briefly: Antibacterial activity against Micrococcus luteus at 50000 ppm after 24 hrs by agar diffusion method.
Assay [13] concerns Staphylococcus aureus. Briefly: Antibacterial activity against Staphylococcus aureus at 10000 ppm after 24 hrs by agar diffusion method.
Assay [14] concerns Staphylococcus aureus. Briefly: Antibacterial activity against Staphylococcus aureus at 30000 ppm after 24 hrs by agar diffusion method.
Assay [15] has as its system Staphylococcus aureus. Briefly: Antibacterial activity against Staphylococcus aureus at 50000 ppm after 24 hrs by agar diffusion method.
The subject of assay [16] is Pseudomonas aeruginosa. Briefly: Antibacterial activity against Pseudomonas aeruginosa at 10000 ppm after 24 hrs by agar diffusion method.
The subject of assay [17] is Pseudomonas aeruginosa. Briefly: Antibacterial activity against Pseudomonas aeruginosa at 30000 ppm after 24 hrs by agar diffusion method.
Assay [18] has as its system Pseudomonas aeruginosa. Briefly: Antibacterial activity against Pseudomonas aeruginosa at 50000 ppm after 24 hrs by agar diffusion method.
Assay [19] concerns Kocuria rosea. Briefly: Antibacterial activity against Micrococcus roseus at 10000 ppm after 24 hrs by agar diffusion method.
The test system of assay [20] is Kocuria rosea. Briefly: Antibacterial activity against Micrococcus roseus at 30000 ppm after 24 hrs by agar diffusion method.
Assay [21] relates to Kocuria rosea. Briefly: Antibacterial activity against Micrococcus roseus at 50000 ppm after 24 hrs by agar diffusion method.

SMILES strings stand for the structures.

As to `N#Cc1[nH]/c(=N/c2nc3ccccc3[nH]2)[nH]c1N`, the zone of inhibition at 10000 ppm was 6 mm in the assay on Bacillus cereus [1]; 8 mm in the assay with Bacillus subtilis [4]; 8 mm in the assay on Escherichia coli [7]; 4 mm with Micrococcus luteus [10]; 3 mm in the assay on Staphylococcus aureus [13]; 6 mm with Pseudomonas aeruginosa [16]. Besides, the zone of inhibition at 10000 ppm with Kocuria rosea [19] is 4 mm. Further, the zone of inhibition at 30000 ppm stood at 10 mm with Bacillus cereus [2]; 11 mm with Bacillus subtilis [5]; 13 mm with Escherichia coli [8]; 7 mm in the assay on Micrococcus luteus [11]; 7 mm in the assay on Staphylococcus aureus [14]; 8 mm in the assay on Pseudomonas aeruginosa [17]. For the same compound, the zone of inhibition at 30000 ppm in the assay on Kocuria rosea [20] was 7 mm. In addition, the zone of inhibition at 50000 ppm with Bacillus cereus [3] was found to be 14 mm; in the assay on Bacillus subtilis [6], 16 mm; in the assay with Escherichia coli [9], 19 mm; in the assay on Micrococcus luteus [12], 9 mm; in the assay with Staphylococcus aureus [15], 7 mm; in the assay on Pseudomonas aeruginosa [18], 9 mm. Also, the zone of inhibition at 50000 ppm with Kocuria rosea [21] amounted to 9 mm.

As for `NC1=Nc2nc3ccccc3n2C2(NC(=O)CS2)N1` (stereo not given), the zone of inhibition at 10000 ppm came to 6 mm in the assay on Bacillus cereus [1]; 9 mm in the assay on Bacillus subtilis [4]; 3 mm in the assay on Staphylococcus aureus [13]; 5 mm with Pseudomonas aeruginosa [16]; 4 mm with Kocuria rosea [19]. The zone of inhibition at 30000 ppm with Bacillus cereus [2] came out at 8 mm; in the assay with Bacillus subtilis [5] it was 13 mm; with Escherichia coli [8], 5 mm; in the assay with Micrococcus luteus [11], 3 mm; in the assay with Staphylococcus aureus [14] it was 5 mm; in the assay on Pseudomonas aeruginosa [17] it was 8 mm. Besides, the zone of inhibition at 30000 ppm in the assay with Kocuria rosea [20] came to 7 mm. Moreover, the zone of inhibition at 50000 ppm was found to be 11 mm with Bacillus cereus [3]; 16 mm with Bacillus subtilis [6]; 8 mm with Escherichia coli [9]; 7 mm in the assay on Micrococcus luteus [12]; 8 mm in the assay with Staphylococcus aureus [15]; 11 mm in the assay on Pseudomonas aeruginosa [18]. The zone of inhibition at 50000 ppm with Kocuria rosea [21] is 10 mm.
